How the values were obtained:
P.acnes = experiment: Suspension test: decline of P. acnes in the formulations after 1 h, 6 h and 24 h (colony count); format: cell-based, Propionibacterium acnes; conditions: for antimikrobielle Wirksamkeit gegen P.acnes: result in words, suspension test, formulations as composed
Description: Die antimikrobielle Wirksamkeit der erfindungsgemäßen Kombinationen gegen P. acnes wurde zum Vergleich mit verschiedenen Formulierungen untersucht. Dazu wurde in einem Suspensionstest der Rückgang der P.acnes nach 1 h, 6h und 24h beobachtet. Dazu wurden wenige Einzelkolonien einer P.acnes - Kultur in 10mL anaerobem Medium im Impedanzgerät mit dem Programm PR37NT herangezogen. Nach der Wachstumsphase von ca. 18 Stunden wird zur Kontrolle der Keimzahl die OD gemessen, die etwa zwischen 0,3 - 0,5 liegen sollte. Für den Versuch wurden 100µL der gewachsene Kolonie und 100µL autoklaviertes Wasser zu 800mg der zu prüfenden Formulierung gegeben. Die Tests wurden manuell durchgeführt. Zwischen den Abnahmen werden die Proben unter anaeroben Bedingungen (Topf) gelagert. Die Proben wurden jeweils zum Zeitpunkt 1h, 6h und 24h genommen und auf den entsprechenden Agarplatten ausplattiert. Die Platten werden unter anaeroben Bedingungen (Topf) bei 37°C bebrütet. Nach 5 Tagen wurde die Keimzahl bestimmt. Die Abbildungen 1 und 2 zeigen die ermittelten Ergebnisse. Darin umfassen die Formulierung wie folgt • A: 0,5 Gew.% Licochalcone A • B: 0,5 Gew.% Licochalcone A und 0,3 Gew.% 1,2 Decandiol • C: 0,3 Gew.% 1,2 Decandiol • D: 0,5 Gew.% Licochalcone A, 0,3 Gew.% 1,2 Decandiol und 2 Gew.% Carnitin • E: 0,5 Gew.% Licochalcone A, 0,2 Gew.% 1,2 Decandiol und 2 Gew.% Carnitin • F: 0,5 Gew.% Licochalcone A, 0,1 Gew.% 1,2 Decandiol und 2 Gew.% Carnitin • G: 0,3 Gew.%-1,2 Decandiol und 2 Gew.% Carnitin • H: 0,2 Gew.% 1,2 Decandiol und 2 Gew.% Carnitin • I: 0,1 Gew.% 1,2 Decandiol und 2 Gew.% Carnitin

P. acnes [1] = conditions: 0,2 % 1,2-Decandiol alone or combined with 1 % Milchsäure, from EP 1598064 A1; cited from earlier work
P. acnes [2] = conditions: gegenüber P. acnes; cited from earlier work

Row | SMILES | Zellzahl reduziert um Faktor (P.acnes; 0,3% Decandiol allein) | antimikrobielle Wirksamkeit gegen P.acnes (P.acnes) | antibakterielle Wirkung im Suspensionstest (P. acnes [1]) | MHK-Werte (P. acnes [2]) [pmm] | Reduktionsfaktor (P.acnes; 0,5% Licochalcone A allein, nach 24h)
1 | CCCCCCCCC(O)CO (stereo not shown) [1,2-Decandiol] | 4158 | nur eine schwache antimikrobielle Wirksamkeit | so gut wie keine antibakterielle Wirkung |  | 
2 | CC[C@H]1OC(=O)[C@H](C)[C@@H](O[C@H]2C[C@@](C)(OC)[C@@H](O)[C@H](C)O2)[C@H](C)[C@@H](O[C@@H]2O[C@H](C)C[C@H](N(C)C)[C@H]2O)[C@](C)(O)C[C@@H](C)C(=O)[C@H](C)[C@@H](O)[C@]1(C)O [Erythromycin] |  |  |  | < 1 | 
3 | C=CC(C)(C)c1cc(/C=C/C(=O)c2ccc(O)cc2)c(OC)cc1O [Licochalcone A] |  | keine antimikrobielle Wirksamkeit |  |  | 41
4 | CN(C)[C@@H]1C(O)=C(C(N)=O)C(=O)[C@@]2(O)C(O)=C3C(=O)c4c(O)cccc4[C@@](C)(O)[C@H]3C[C@@H]12 [Tetracyclin] |  |  |  | < 1 | 

— EP2549976B1, “SKIN-FRIENDLY ACTIVE INGREDIENT COMBINATION TO COMBAT ACNE” (Beiersdorf AG, priority 2010, dated 2011)
